The supplement of paper PMC11061612

What was measured:
[1] = system: NCI-H929 (Plasma Cell Myeloma); assay: combination Emax (second highest fraction inhibited in the dose matrix, 72 h); higher = more inhibition; extreme values may be limits of the assay
Outline: (§1)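 Cell lines in DMEM/F12 or RPMI with 10% FBS were plated in 1536-well plates, held 24 hours at 37°C, 5% CO2, then given two-drug dose matrices for 72 hours (DMSO typically 0.2%). Viability was read by CellTiter-Glo 2.0 luminescence and scaled as inhibition from 0 (vehicle wells) to 1 (blank wells). Combination Emax is the second-highest inhibition in the matrix; Bliss excess is observed combination effect minus expected EA + EB − EA·EB, EA and EB being single-agent effects.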

[2] = system: NCCIT (Other Solid Carcinomas); assay: as above
Outline: as §1

[3] = system: KU812 (Chronic Myelogenous Leukemia); assay: as above
Outline: as §1

[4] = system: OCI-AML3 (Acute Myeloid Leukemia); assay: as above
Outline: as §1

[5] = system: COR-L279 (Small Cell Lung Carcinoma); assay: as above
Outline: as §1

[6] = system: T-T (Esophageal Squamous Cell Carcinoma); assay: as above
Outline: as §1

SJSA-1 (Osteosarcoma) [7] = assay: as above
Outline: as §1

[8] = system: MN-60 (B-Lymphoblastic Leukemia); assay: as above
Outline: as §1

[9] = system: NCI-H526 (Small Cell Lung Carcinoma); assay: as above
Outline: as §1

[10] = system: KP-3 (Pancreatic Carcinoma); assay: as above
Outline: as §1

M059J (Glioblastoma) [11] = assay: as above
Outline: as §1

[12] = system: DMS-114 (Small Cell Lung Carcinoma); assay: as above
Outline: as §1

[13] = system: NCI-H520 (Squamous Cell Lung Carcinoma); assay: as above
Outline: as §1

[14] = system: MOG-G-CCM (Low Grade Glioma); assay: as above
Outline: as §1

NCI-H2731 (Mesothelioma) [15] = assay: as above
Outline: as §1

[16] = system: CW-2 (Colorectal Carcinoma); assay: as above
Outline: as §1

[17] = system: SK-GT-4 (Esophageal Adenocarcinoma); assay: as above
Outline: as §1

[18] = system: NCI-H3122 (Lung Adenocarcinoma); assay: as above
Outline: as §1

[19] = system: KYSE-270 (Esophageal Squamous Cell Carcinoma); assay: as above
Outline: as §1

[20] = system: ST486 (Burkitt's Lymphoma); assay: as above
Outline: as §1

[21] = system: VMRC-RCZ (Kidney Carcinoma); assay: as above
Outline: as §1

[22] = system: NCI-H929 (Plasma Cell Myeloma); assay: Bliss excess, mean over the matrix (fraction); higher = more synergy
Outline: as §1

[23] = system: NCCIT (Other Solid Carcinomas); assay: as above
Outline: as §1

[24] = system: KU812 (Chronic Myelogenous Leukemia); assay: as above
Outline: as §1

[25] = system: OCI-AML3 (Acute Myeloid Leukemia); assay: as above
Outline: as §1

[26] = system: COR-L279 (Small Cell Lung Carcinoma); assay: as above
Outline: as §1

[27] = system: T-T (Esophageal Squamous Cell Carcinoma); assay: as above
Outline: as §1

SJSA-1 (Osteosarcoma) [28] = assay: as above
Outline: as §1

[29] = system: MN-60 (B-Lymphoblastic Leukemia); assay: as above
Outline: as §1

[30] = system: NCI-H526 (Small Cell Lung Carcinoma); assay: as above
Outline: as §1

[31] = system: KP-3 (Pancreatic Carcinoma); assay: as above
Outline: as §1

M059J (Glioblastoma) [32] = assay: as above
Outline: as §1

[33] = system: DMS-114 (Small Cell Lung Carcinoma); assay: as above
Outline: as §1

[34] = system: NCI-H520 (Squamous Cell Lung Carcinoma); assay: as above
Outline: as §1

[35] = system: MOG-G-CCM (Low Grade Glioma); assay: as above
Outline: as §1

NCI-H2731 (Mesothelioma) [36] = assay: as above
Outline: as §1

[37] = system: CW-2 (Colorectal Carcinoma); assay: as above
Outline: as §1

[38] = system: SK-GT-4 (Esophageal Adenocarcinoma); assay: as above
Outline: as §1

[39] = system: NCI-H3122 (Lung Adenocarcinoma); assay: as above
Outline: as §1

[40] = system: KYSE-270 (Esophageal Squamous Cell Carcinoma); assay: as above
Outline: as §1

[41] = system: ST486 (Burkitt's Lymphoma); assay: as above
Outline: as §1

[42] = system: VMRC-RCZ (Kidney Carcinoma); assay: as above
Outline: as §1
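Wherever Bliss excess, mean over the matrix is given: after 72 h of two-drug dosing.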

N#Cc1cnc(Nc2cc(NC[C@H]3CNCCO3)c(C(F)(F)F)cn2)cn1 [SRA737] + C=CCn1c(=O)c2cnc(Nc3ccc(N4CCN(C)CC4)cc3)nc2n1-c1cccc(C(C)(C)O)n1 [AZD1775] (first compound max 10 µM, partner max 1 µM)
combination Emax [1]: 0.724
combination Emax [2]: 0.821
combination Emax [3]: 0.796
combination Emax [4]: 0.934
combination Emax [5]: 0.834
combination Emax [6]: 0.671
combination Emax (SJSA-1 (Osteosarcoma) [7]): 0.535
combination Emax [8]: 0.642
combination Emax [9]: 0.753
combination Emax [10]: 0.294
combination Emax (M059J (Glioblastoma) [11]): 0.659
combination Emax [12]: 0.229
combination Emax [13]: 0.755
combination Emax [14]: 0.683
combination Emax (NCI-H2731 (Mesothelioma) [15]): 0.357
combination Emax [16]: 0.499
combination Emax [17]: 0.565
combination Emax [18]: 0.724
combination Emax [19]: 0.991
combination Emax [20]: 0.987
combination Emax [21]: 0.51
Bliss excess [22]: 0.0295
Bliss excess [23]: 0.0855
Bliss excess [24]: 0.0668
Bliss excess [25]: 0.171
Bliss excess [26]: 0.116
Bliss excess [27]: 0.0665
Bliss excess (SJSA-1 (Osteosarcoma) [28]): 0.0091
Bliss excess [29]: -0.0125
Bliss excess [30]: 0.0145
Bliss excess [31]: 0.0086
Bliss excess (M059J (Glioblastoma) [32]): 0.073
Bliss excess [33]: -0.0231
Bliss excess [34]: 0.055
Bliss excess [35]: 0.0229
Bliss excess (NCI-H2731 (Mesothelioma) [36]): 0.0007
Bliss excess [37]: 0.0162
Bliss excess [38]: 0.003
Bliss excess [39]: 0.0718
Bliss excess [40]: 0.136
Bliss excess [41]: 0.0356
Bliss excess [42]: 0.0259

C[C@@H]1COCCN1c1cc(C2([S@](C)(=N)=O)CC2)nc(-c2ccnc3[nH]ccc23)n1 [AZD6738] + C1CC(C1)(C(=O)[O-])C(=O)[O-].N.N.[Pt+2] [Carboplatin] (first compound max 10 µM, 7x7, partner max 10 µM)
combination Emax [1]: 0.801
combination Emax [2]: 0.531
combination Emax [3]: 0.817
combination Emax [4]: 0.854
combination Emax [5]: 0.635
combination Emax [6]: 0.26
combination Emax (SJSA-1 (Osteosarcoma) [7]): 0.477
combination Emax [8]: 0.638
combination Emax [9]: 0.564
combination Emax [10]: 0.264
combination Emax (M059J (Glioblastoma) [11]): 0.502
combination Emax [12]: 0.4
combination Emax [13]: 0.674
combination Emax [14]: 0.536
combination Emax (NCI-H2731 (Mesothelioma) [15]): 0.399
combination Emax [16]: 0.537
combination Emax [17]: 0.463
combination Emax [18]: 0.674
combination Emax [19]: 0.779
combination Emax [20]: 0.865
combination Emax [21]: 0.392
Bliss excess [22]: -0.0536
Bliss excess [23]: -0.0274
Bliss excess [24]: -0.0691
Bliss excess [25]: -0.0326
Bliss excess [26]: -0.0178
Bliss excess [27]: -0.0661
Bliss excess (SJSA-1 (Osteosarcoma) [28]): -0.0152
Bliss excess [29]: -0.119
Bliss excess [30]: -0.0076
Bliss excess [31]: -0.0087
Bliss excess (M059J (Glioblastoma) [32]): -0.0647
Bliss excess [33]: -0.095
Bliss excess [34]: -0.0017
Bliss excess [35]: -0.0204
Bliss excess (NCI-H2731 (Mesothelioma) [36]): -0.0109
Bliss excess [37]: -0.0212
Bliss excess [38]: -0.0516
Bliss excess [39]: -0.0999
Bliss excess [40]: 0.0445
Bliss excess [41]: -0.0501
Bliss excess [42]: -0.0249

O=C(c1cc(Cc2n[nH]c(=O)c3ccccc23)ccc1F)N1CCN(C(=O)C2CC2)CC1 [Olaparib] + Cc1c2c(nn1C)CSCc1cc(n(C)n1)CSc1cc(c3ccccc3c1)OCCCc1c(C(=O)O)n(C)c3c-2c(Cl)ccc13 [AZD5991] (first compound max 10 µM, 7x7, partner max 1 µM)
combination Emax [1]: 1
combination Emax [2]: 0.527
combination Emax [3]: 0.784
combination Emax [4]: 0.98
combination Emax [5]: 0.961
combination Emax [6]: 0.801
combination Emax (SJSA-1 (Osteosarcoma) [7]): 0.0831
combination Emax [8]: 0.22
combination Emax [9]: 0.805
combination Emax [10]: 0.028
combination Emax (M059J (Glioblastoma) [11]): 0.254
combination Emax [12]: 0.55
combination Emax [13]: 0.104
combination Emax [14]: 0.222
combination Emax (NCI-H2731 (Mesothelioma) [15]): 0.0516
combination Emax [16]: 0.101
combination Emax [17]: 0.0608
combination Emax [18]: 0.315
combination Emax [19]: 0.625
combination Emax [20]: 0.558
combination Emax [21]: 0.0573
Bliss excess [22]: -0.0215
Bliss excess [23]: 0.0176
Bliss excess [24]: -0.0111
Bliss excess [25]: 0.0224
Bliss excess [26]: 0.0494
Bliss excess [27]: -0.0217
Bliss excess (SJSA-1 (Osteosarcoma) [28]): -0.0401
Bliss excess [29]: -0.0496
Bliss excess [30]: 0.0251
Bliss excess [31]: -0.0576
Bliss excess (M059J (Glioblastoma) [32]): 0.0008
Bliss excess [33]: 0.0106
Bliss excess [34]: -0.0289
Bliss excess [35]: -0.0519
Bliss excess (NCI-H2731 (Mesothelioma) [36]): -0.0452
Bliss excess [37]: -0.03
Bliss excess [38]: -0.061
Bliss excess [39]: -0.0156
Bliss excess [40]: -0.0303
Bliss excess [41]: 0.0593
Bliss excess [42]: -0.049

CC1(C)CCC(CN2CCN(c3ccc(C(=O)NS(=O)(=O)c4ccc(NCC5CCOCC5)c([N+](=O)[O-])c4)c(Oc4cnc5[nH]ccc5c4)c3)CC2)=C(c2ccc(Cl)cc2)C1 [Venetoclax] + CS(=O)(=O)CCNCc1ccc(-c2ccc3ncnc(Nc4ccc(OCc5cccc(F)c5)c(Cl)c4)c3c2)o1 [Lapatinib] (first compound max 1 µM, 7x7, partner max 10 µM)
combination Emax [1]: 0.207
combination Emax [2]: 0.209
combination Emax [3]: 0.831
combination Emax [4]: 0.397
combination Emax [5]: 0.911
combination Emax [6]: 0.794
combination Emax (SJSA-1 (Osteosarcoma) [7]): 0.219
combination Emax [8]: 0.111
combination Emax [9]: 0.727
combination Emax [10]: 0.165
combination Emax (M059J (Glioblastoma) [11]): 0.365
combination Emax [12]: 0.226
combination Emax [13]: 0.296
combination Emax [14]: 0.166
combination Emax (NCI-H2731 (Mesothelioma) [15]): 0.285
combination Emax [16]: 0.379
combination Emax [17]: 0.341
combination Emax [18]: 0.232
combination Emax [19]: 0.477
combination Emax [20]: 0.524
combination Emax [21]: 0.155
Bliss excess [22]: -0.0098
Bliss excess [23]: -0.024
Bliss excess [24]: 0.0282
Bliss excess [25]: 0.01
Bliss excess [26]: -0.0185
Bliss excess [27]: -0.0066
Bliss excess (SJSA-1 (Osteosarcoma) [28]): -0.002
Bliss excess [29]: -0.0502
Bliss excess [30]: 0.105
Bliss excess [31]: -0.0487
Bliss excess (M059J (Glioblastoma) [32]): -0.0225
Bliss excess [33]: -0.0443
Bliss excess [34]: -0.0169
Bliss excess [35]: -0.0568
Bliss excess (NCI-H2731 (Mesothelioma) [36]): -0.0257
Bliss excess [37]: -0.0116
Bliss excess [38]: -0.0436
Bliss excess [39]: -0.0229
Bliss excess [40]: -0.0175
Bliss excess [41]: 0.0224
Bliss excess [42]: -0.047
